Laboratory results published in US20130004581A1, “CONTROLLING UPTAKE BY CELLS” (Ramot at Tel-Aviv University Ltd., priority 2010, published 2013).

Test system: erythrocytes (RBCs)
Experiment: Proton induced uptake and efflux in erythrocytes (RBCs), flow cytometry
Assay type: cell-based
Procedure: As shown, PIU in erythrocytes depends on external pH in a constant rate. […] Flow cytometry analyses include FITC intensity geometrical mean±SD presented as fold induction relative to background. n=9 in 3 independent experiments.
RBCs were exposed to external pH 5.4 for time durations of 10, 15, 30, 45 and 60 minutes. […] Flow cytometry analyses in terms of geometrical mean±SD are presented as fold induction relative the fluorescent intensity in the first group (10 min). No statistical difference is found in PIU rate for the different groups (p >0.05 by one way ANOVA, n=9 in 3 independent experiments).
Flow cytometry analyses include FITC intensity geometrical mean±SD presented as fold induction relative to background. n=9 in 3 independent experiments.
The cells were washed and divided into 2 groups, suspended in fresh solution of either pH 7.4 or pH 5.4. Cells from each group were incubated for durations of 10, 20, 30, 45 and 60 minutes, before being analyzed by flow cytometry. Results given in terms of geometrical mean±SD are presented as fold induction relative to cells analyzed immediately following exposure to low pH. n=8 in 2 independent experiments.
Following treatment the cells were washed in PBS-G and analyzed by flow cytometry. Results are presented as geometrical mean of FITC intensity±SD for 50,000 cells per sample.
This apparent saturation may be attributed to a competitive efflux process. […] Next, the cells were washed and re-suspended in fresh PBS-G of either pH 7.4 or 5.4, in the absence of dextran and then incubated at 37° C. for durations of 10, 20, 30, 45 and 60 minutes, followed by flow cytometry analysis (FIG. 32B). Dextran concentrations in RBCs incubated under physiological conditions (pH 7.4) suffers some gradual 20% decrease in value for 60 minutes after PIPC(P<0.05, one tail t-test). However, when RBCs are incubated at pH 5.4, the dextran concentration decline rapidly during the first 10 minutes, losing 50% of their initial value after 20 minutes and continue to decrease at a declining rate for the rest of the period monitored. It appears that long exposure of RBCs to low pH inflict some damage to the cells ability to retain the uptake cargo molecule (FIG. 32b). In an exemplary embodiment of the invention, RBCs are instead subjected to a pulsed treatment regime. […] In an exemplary embodiment of the invention, pulsed uptake is used to avoid/reduce causing leakage in cells and thus reduce efflux. Optionally or alternatively, cells that are sensitive to low pH can be treated. For example, one hour exposures separated by two hour rest periods may be used for siRNA transfection of pH-sensitive cells. […]

For Dextran-FITC, the “external pH at which uptake is significant relative to autofluorescence at pH 7.4” value (70 kD dextran-FITC 10 μM, 5 minutes, P<0.05) was under 6 pH, the “loss of initial intracellular dextran concentration after loading” value (incubated at pH 5.4, 37° C., after 20 minutes) was 50% and the “decrease of intracellular dextran concentration after loading” value (incubated at pH 7.4, 37° C., 60 minutes after 10 minutes loading at pH 5.4) was 20%. The “intracellular concentration after three cycles of 10 minutes exposure versus one exposure of 30 minutes” value (low pH solution, cycles separated by washing and 10 minutes in PBS-G) was “higher concentration”.
